Data as given in patent US9012395B2, “Treatment of extracellular matrix to reduce inflammation” (The Cleveland Clinic Foundation, priority 2011, dated 2015).

Assay: Solubility of HA

hyaluronan [HA]
Concentration of HA solutions that can be prepared: ≥ 20000 µg/mL
